The values below come from EP0420120A2, “Optically active benzyl alcohol compound and pharmaceutical composition” (HOKURIKU PHARMACEUTICAL CO., LTD., priority 1989, dated 1991).

The structures appear in SMILES notation.

Assay [1] concerns isolated uterine smooth muscle. Put plainly: Effects on isolated uterine smooth muscle of rats (relaxation of oxytocin pre-contracted preparations). In kind it is cell-based. The method, then: Non-pregnant female Wistar rats weighing about 200 g were killed and the uteruses were isolated. Each uterine preparation (15 mm in length) was mounted vertically in an organ bath containing modified Locke-Ringer solution of following composition: 150 mM NaCl, 5.4 mM KCl, 0.36 mM CaCl₂, 0.19 mM MgCl₂, 4.8 mM NaHCO₃, 0.15 mM KH₂ PO₄, 0.56 mM Na₂ HPO₄ and 2.8 mM Glucose. The bath medium was maintained at 37 °C and was equilibrated with a gas mixture consisting of 95% O₂ + 5% CO₂. The uterine preparations were pre-contracted with oxytocin (10 ⁻² U/ml) and the muscle relaxations induced by the test compounds were recorded isotonically. The test compounds were added cumulatively to the bath. ED₅₀ values for concentration-response curves which produce 50% relaxations of the maximal relaxations (10 ⁻⁶ M isoproterenol) were calculated.

Assay [2] deals with isolated atrium. The assay can be described thus: Effects on isolated atrium of guinea-pigs (spontaneous beating rate of right atrium). In kind it is cell-based. Here is the method: Male Hartley guinea-pigs weighing about 500 g were killed and the atria were isolated. Each right atrium was mounted vertically in an organ bath containing Krebs-Henseleit solution and the spontaneous beating rate was recorded. The bath medium was maintained at 30°C and was equilibrated with a gas mixture consisting of 95% O₂ + 5% CO₂. The test compounds were added cumulatively to the bath. ED₅₀ values for concentration-response curves which produce 50% increases of the basal spontaneous beating rate were calculated. The results are shown in Table 3 The selcctive relaxing activities of the compound of the present invention on the uterine and the bladder smooth muscle were compared with positive chronotropic effect in the atrium.

Consider `CC(C)(C)NCC(O)c1ccc(O)cc1Cl` (single isomer, unassigned; (-)) [(-)-enantiomer, (-)-α -[(tert-Butylamino)methyl]-2-chloro-4-hydroxybenzyl alcohol], for which, in assay [1] (from the ED₅₀ values of Table 1, fold greater than ritodrine), the “effect relative to ritodrine” value was approximately 25 fold. The “effect relative to the (+)-enantiomer” value in assay [1] (from the ED₅₀ values of Table 1, fold greater than the (+)-enantiomer) is “about 130 fold”. For the same molecule, the “Selectivity Bladder” value in assay [2] (ED₅₀ value (positive chronotropic effect in the atrium) / ED₅₀ value (relaxing effect on the bladder smooth muscle)) is recorded as 462. Moreover, in assay [2] (ED₅₀ value (positive chronotropic effect in the atrium) / ED₅₀ value (relaxing effect on the uterine smooth muscle)), the “Selectivity Uterus” value turned out to be 21.
